In patent US20240316047A1, “INHIBITORS OF RNA HELICASE DHX9 AND USES THEREOF” (ACCENT THERAPEUTICS, INC., priority 2022, published 2024):

Biological target: Human recombinant DHX9 protein (Homo sapiens (Human), UniProt Q08211)
Assay: DHX9 ATPase assay (ADP-Glo)
Assay type: biochemical
Details: for IC50: read-out: DHX9 Biochemical Inflection Point

Human recombinant DHX9 protein, sequence (Q08211 whole entry): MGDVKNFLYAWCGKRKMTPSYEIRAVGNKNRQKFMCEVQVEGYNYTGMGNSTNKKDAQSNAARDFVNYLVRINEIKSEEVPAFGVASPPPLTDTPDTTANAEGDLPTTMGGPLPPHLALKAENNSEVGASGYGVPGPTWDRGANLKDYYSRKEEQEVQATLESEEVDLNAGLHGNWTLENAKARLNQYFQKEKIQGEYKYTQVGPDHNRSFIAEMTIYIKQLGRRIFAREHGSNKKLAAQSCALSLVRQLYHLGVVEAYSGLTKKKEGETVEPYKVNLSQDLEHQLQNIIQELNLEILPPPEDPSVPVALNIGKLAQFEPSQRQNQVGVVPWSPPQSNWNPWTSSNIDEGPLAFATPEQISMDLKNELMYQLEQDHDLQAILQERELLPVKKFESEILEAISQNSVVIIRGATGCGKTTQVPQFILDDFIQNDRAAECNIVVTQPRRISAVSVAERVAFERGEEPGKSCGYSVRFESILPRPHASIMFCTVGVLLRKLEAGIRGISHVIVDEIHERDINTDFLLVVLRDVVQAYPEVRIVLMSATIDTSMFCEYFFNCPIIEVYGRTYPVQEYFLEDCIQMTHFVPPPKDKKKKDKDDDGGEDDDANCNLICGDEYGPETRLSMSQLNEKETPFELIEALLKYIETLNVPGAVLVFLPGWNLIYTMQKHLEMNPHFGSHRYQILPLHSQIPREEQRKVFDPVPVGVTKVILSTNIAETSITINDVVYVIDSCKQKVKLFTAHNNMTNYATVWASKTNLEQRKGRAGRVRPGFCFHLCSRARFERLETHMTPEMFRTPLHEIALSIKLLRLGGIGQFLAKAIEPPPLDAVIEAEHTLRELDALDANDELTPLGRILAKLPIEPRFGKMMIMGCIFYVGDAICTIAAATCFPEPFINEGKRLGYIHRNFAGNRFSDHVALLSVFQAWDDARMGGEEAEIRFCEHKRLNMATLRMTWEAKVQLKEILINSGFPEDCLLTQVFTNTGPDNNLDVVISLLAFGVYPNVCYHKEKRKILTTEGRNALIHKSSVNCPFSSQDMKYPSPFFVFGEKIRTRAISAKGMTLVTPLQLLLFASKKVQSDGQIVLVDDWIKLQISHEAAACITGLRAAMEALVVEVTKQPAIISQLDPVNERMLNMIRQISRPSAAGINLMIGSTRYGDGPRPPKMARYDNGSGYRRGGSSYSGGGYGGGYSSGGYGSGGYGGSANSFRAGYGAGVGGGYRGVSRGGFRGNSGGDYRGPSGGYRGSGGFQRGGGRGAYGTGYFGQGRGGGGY

Structure (SMILES) | DHX9 Biochemical Max Inhibition | IC50 [nM]
COc1ccc(-c2cc(C(=O)Nc3cc(Cl)cc(NS(C)(=O)=O)c3)cn2C)nc1 [Example 573] | 82.8 | 15.5
Cc1cc(C(=O)Nc2cc(Cl)cc(NS(C)(=O)=O)c2)cn1-c1ncc([S+](C)[O-])cn1 (stereo not drawn) [Example 657] | 71.8 | 14.7
Cc1sc(C(=O)Nc2cc(Cl)cc(NS(C)(=O)=O)c2)cc1N1C(=O)N(C)C(C)(c2ccccn2)C1=O (stereo not drawn) [Example 660] | 67.1 | 2120
CS(=O)(=O)Nc1cc(Br)cc(NC(=O)c2cnn(-c3ncccn3)c2)c1 [Example 50, N-(3-bromo-5-(methylsulfonamido)phenyl)-1-(pyrimidin-2-yl)-1H-pyrazole-4-carboxamide] | 55.5% | 45
Cc1cc(C(=O)Nc2cc(Cl)cc(NS(C)(=O)=O)c2)cn1-c1ncc(N2CC(F)(F)C2)cc1Cl [Example 406] | 75.7 | 55.1
CS(=O)(=O)Nc1cc(Cl)cc(NC(=O)c2cnn(-c3ncc(N4CCOCC4)cn3)c2)c1 [Example 394] | 73.7 | 24.8
CS(=O)(=O)Nc1cc(Cl)cc(NC(=O)c2cnn(-c3ncccc3C(F)(F)F)c2)c1 [Example 47] | 64.7% | 269
CCS(=O)(=O)Nc1cc(Cl)cc(NC(=O)c2cc(-c3ncc(C)cc3F)n(C)c2)c1 [Example 548] | 64.6 | 27.3
Cc1cc(C(=O)Nc2cc(F)cc(NS(C)(=O)=O)c2)c[nH]1 [Example 5] | 74.6% | 215
Cc1sc(C(=O)Nc2cc(Cl)cc(NS(C)(=O)=O)c2)cc1-c1ncc(F)cn1 [Example 336] | 84% | 9.6
Cc1cc(C(=O)Nc2cc(Cl)cc(NS(C)(=O)=O)c2)cn1-c1ncc(N2CC(C(F)(F)F)C2)cn1 [Example 694] | 73 | 29.3
Cc1cc(C(=O)Nc2cc(Cl)cc(NS(C)(=O)=O)c2)cn1-c1ccc(N2CCN(C(=O)N(C)C)CC2)cn1 [Example 284] | 79.6% | 4.1
CCc1cn2cc(C(=O)Nc3cc(Cl)cc(NS(C)(=O)=O)c3)ccc2n1 [Example 132] | 55.1% | 295
CCS(=O)(=O)Nc1cc(Cl)cc(NC(=O)c2cc(-c3ncc(F)cn3)c(C3CC3)s2)c1 [Example 449] | 69.5 | 336
Cc1sc(C(=O)Nc2cc(Cl)cc(NS(C)(=O)=O)c2)cc1-c1ncc(N2CCC(F)(F)CC2)cc1F [Example 471] | 72.1 | 29.2
CN1CCN(c2cnc(-n3cc(C(=O)Nc4cc(Cl)cc(NS(C)(=O)=O)c4)cn3)c(OCc3cccnc3)c2)CC1=O [Example 193] | 65.8% | 11.1
Cn1cc(C(=O)Nc2cc(Cl)cc(NS(C)(=O)=O)c2)cc1-c1c(F)cc(F)cc1F [Example 547] | 81.1 | 126
Cc1sc(C(=O)Nc2cc(Cl)cc(NS(C)(=O)=O)c2)cc1-c1ncc(C2CCN(CC(F)(F)F)CC2)cc1F [Example 618] | 66.6 | 59.2
COc1cc(F)cnc1-c1cc(C(=O)Nc2cc(Cl)cc(NS(C)(=O)=O)c2)cn1C [Example 568, N-(3-chloro-5-methanesulfonamidophenyl)-5-(5-fluoro-3-methoxypyridin-2-yl)-1-methylpyrrole-3-carboxamide] | 77.3 | 7.9
Cc1ccc(C#N)cc1-n1cc(C(=O)Nc2cc(Br)cc(NS(C)(=O)=O)c2)cn1 [Example 53] | 52.2% | 1910
Cc1cc(C(=O)Nc2cc(Cl)cc(NS(C)(=O)=O)c2)cn1-c1ccc(C#N)cn1 [Example 425] | 90 | 55.5
